The values below come from patent US20110207796A1, “ALPHA-SYNUCLEIN KINASE” (Elan Pharma International Limited, priority 2008, published 2011).

For assay [1], the system named is brain p-synuclein (p-Ser129). Kind of assay: in vivo inhibition of phosphorylation of synuclein in wild-type FVB mice, brain western blot. Set-up: species or system mouse. The following applies: IV tail vein 50 mg/kg. As to the method:
The examples above describe the identification and in vitro validation of polo-like kinase 2 (PLK2) as an α-synuclein Ser 129-specific kinase. This example describes the ability of a kinase inhibitor (BI 2561) to decrease phosphorylation of α-synuclein in vivo. Wild-type FVB mice were treated by IV tail vein with 50 mg/kg of the PLK-specific inhibitor. Total α-synuclein and p-synuclein levels in brain (p-Ser129) were analyzed by western blot.
On the technique in general: Immunoblotting shows a protein as a band on a membrane.

Assay [2] deals with synuclein phosphorylation by endogenous kinase. Kind of assay: kinase inhibitor treatment of mouse cortical cultures (MCC), total and phospho-synuclein ELISA. In kind it is cell-based. As to the method: Mouse cortical cultures from fetal (i) Swiss-Webster, (ii) C56BL/6 WT and (iii) C56BL/6 E46K-Synuclein Trangenic mice were prepared and maintained in B27/DMEM/1% Penicillin-Streptomycin at 37° C./10% CO2 for three to fourteen days and then treated with kinase inhibitors.
Cultures were exposed to inhibitors for two hours in B27/DMEM/1% Penicillin-Streptomycin. Cells were immediately washed in 100 μL of PBS plus Mg^2+ and Ca^2+, and harvested in ice-cold CEB minus EGTA plus protease inhibitors, frozen on dry ice and stored at −80° C. until processed. A Micro BCA (Pierce) total protein assay, and total synuclein and phospho-synuclein ELISAs were performed on each plate of treated cells using standard methods.
Background: ELISA stands for enzyme-linked immunosorbent assay.

For assay [3] the target is unchanged. Briefly: kinase inhibitor treatment of rat ventral mesencephalon (RVM) cultures transduced with E46K-synuclein. The assay is classed as cell-based. The method, then: (§1) Rat Ventral Mesencephalon (RVM) cultures were prepared from E15 Wistar rats. The RVM cultures were cultured for 2 days and transduced with 0.75 MOI E46K-Synuclein lentivirus alone, or 0.75 MOI E46K-Synuclein lentivirus plus 0.75 MOI ca-PLK2 lentivirus. […] Transduced cultures were maintained in neuronal media with B27/1% FBS and 37° C./5% CO2 until treated with inhibitors. On DIV 17 (which corresponds to 15 days after viral transduction of the cultures) cells were treated with inhibitors for two hours. Cells were then harvested as detailed above in neuronal media with B27/1% FBS. A Micro BCA (Pierce) total protein assay, and total synuclein and phospho-synuclein ELISAs were performed on each plate of treated cells using standard methods.

Assay [4] concerns the target synuclein phosphorylation by constitutively active PLK2 (caPLK2). Kind of assay: kinase inhibitor treatment of RVM cultures transduced with E46K-synuclein plus ca-PLK2. The following applies: rat ventral mesencephalon cultures. The assay is classed as cell-based. As to the method:
as §1

For assay [5], the system named is synuclein phosphorylation (serine-129). Kind of assay: inhibition of synuclein phosphorylation across the cellular paradigms (primary neuronal cultures and 293 cells). The assay is classed as cell-based, mouse, rat and human. To be noted: for EC50: Homo sapiens.
In assay [6] the target is T1, PLK2 (Homo sapiens, UniProt Q9NYY3). Kind of assay: in vitro biochemical assay of PLK2-driven synuclein phosphorylation. The method, then:
The reaction was incubated at 37° C. The activity was analyzed by autoradiography.
In vitro biochemical assays using each of the four PLK family members as the kinase to phosphorylate synuclein were conducted.

The subject of assay [7] is endogenous kinase (synuclein phosphorylation). Briefly: HEK-293 cells overexpressing synuclein with empty vector, inhibition of synuclein phosphorylation. In kind it is cell-based, human. To be noted: for rank order of potency, Endogenous Kinase (293): Table 19. The method, then:
(§2) All vectors had the sequence coding for the protein of interest. Transfection was accomplished using Lipofectamine 2000 (Invitrogen, Carlsbad, Calif.) with 0.08 μg vector. Cells were washed and harvested 48 hours post-transfection. A Micro BCA (Pierce) total protein assay and total synuclein and phospho-synuclein ELISAs were performed on each plate of treated cells.

Assay [8] concerns the target T1, PLK2. Briefly: HEK-293 cells overexpressing synuclein and PLK2, inhibition of synuclein phosphorylation. In kind it is cell-based. Also noted: expressed in transfected cells; host or cells: HEK-293. As to the method:
as §2

The subject of assay [9] is synuclein phosphorylation. Kind of assay: overexpression of PLK family members with WT-synuclein in HEK-293 cells, phospho-synuclein ELISA. The assay is classed as cell-based, human. The method, then: HEK-293 naïve cells were transfected with an expression vector encoding PLK1, PLK2, PLK3, or PLK4 under the control of a CMV promoter, or empty vector, together with an expression vector encoding WT-synuclein. All vectors had the sequence coding for the protein of interest. Transfection was accomplished using Lipofectamine 2000 (Invitrogen, Carlsbad, Calif.) with 0.08 μg vector. Cells were washed and harvested 48 hours post-transfection. A Micro BCA (Pierce) total protein assay and total synuclein and phospho-synuclein ELISAs were performed on each plate of treated cells.

The target in another assay is T2, PLK3 (Homo sapiens, UniProt Q9H4B4).
T2 construct: expressed in transfected cells; host or cells: HEK-293
Kind of assay: HEK-293 cells overexpressing synuclein and PLK3, inhibition of synuclein phosphorylation. The assay is classed as cell-based. As to the method:
as §2

Another assay addresses T3, PLK4 (Homo sapiens, UniProt O00444).
T3 sequence (O00444 1-970): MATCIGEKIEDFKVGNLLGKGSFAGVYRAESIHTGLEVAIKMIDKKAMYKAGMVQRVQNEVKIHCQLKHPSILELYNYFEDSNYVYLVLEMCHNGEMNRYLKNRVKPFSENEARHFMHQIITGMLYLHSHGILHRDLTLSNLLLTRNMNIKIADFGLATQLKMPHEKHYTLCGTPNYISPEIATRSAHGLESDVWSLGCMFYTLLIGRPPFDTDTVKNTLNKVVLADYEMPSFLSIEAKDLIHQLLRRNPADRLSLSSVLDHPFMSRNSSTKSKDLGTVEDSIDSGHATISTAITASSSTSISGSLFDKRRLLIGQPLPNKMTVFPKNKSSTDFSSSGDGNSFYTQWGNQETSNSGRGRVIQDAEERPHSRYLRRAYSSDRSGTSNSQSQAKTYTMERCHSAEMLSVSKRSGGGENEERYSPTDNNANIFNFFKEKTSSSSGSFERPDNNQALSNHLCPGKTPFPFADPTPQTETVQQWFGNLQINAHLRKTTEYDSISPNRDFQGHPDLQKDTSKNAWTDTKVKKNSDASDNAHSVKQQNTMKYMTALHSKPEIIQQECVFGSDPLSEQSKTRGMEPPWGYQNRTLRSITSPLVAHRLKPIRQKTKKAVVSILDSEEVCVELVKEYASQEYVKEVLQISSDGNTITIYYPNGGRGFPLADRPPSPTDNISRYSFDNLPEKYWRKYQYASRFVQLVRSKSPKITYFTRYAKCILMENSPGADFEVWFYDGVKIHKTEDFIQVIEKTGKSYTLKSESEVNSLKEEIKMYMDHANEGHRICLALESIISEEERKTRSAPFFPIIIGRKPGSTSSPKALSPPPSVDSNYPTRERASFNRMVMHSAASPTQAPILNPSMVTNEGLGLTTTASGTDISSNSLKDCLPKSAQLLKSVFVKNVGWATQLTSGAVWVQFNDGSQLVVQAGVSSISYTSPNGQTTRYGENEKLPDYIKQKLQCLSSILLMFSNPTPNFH
Briefly: HEK-293 cells overexpressing synuclein and PLK4, inhibition of synuclein phosphorylation. In kind it is cell-based. To be noted: HEK-293. The method, then:
as §2

[10] abbreviates: E46K-Synuclein transgenic mouse cortical cultures, read-out: EC50, E46K-Syn TG MCC.
Where [11] appears, read: WT mouse cortical cultures, read-out: EC50, WT-MCC.
Setting [12] is: in vitro PLK2-driven synuclein phosphorylation, read-out: IC50, Straight Biochemical.
Where [13] appears, read: 293 cells, Table 18, read-out: EC50, Over-Expressed PLK2 (293).
Setting [14] is: Homo sapiens, HEK293, 293 cells, Table 18, read-out: EC50, Endogenous Kinase (293).
Where [15] appears, read: PLK2-driven synuclein phosphorylation, read-out: IC50 in the in vitro biochemical assay.

Where two headings read alike, the source gives them in different places.

T1 sequence (Q9NYY3 whole entry): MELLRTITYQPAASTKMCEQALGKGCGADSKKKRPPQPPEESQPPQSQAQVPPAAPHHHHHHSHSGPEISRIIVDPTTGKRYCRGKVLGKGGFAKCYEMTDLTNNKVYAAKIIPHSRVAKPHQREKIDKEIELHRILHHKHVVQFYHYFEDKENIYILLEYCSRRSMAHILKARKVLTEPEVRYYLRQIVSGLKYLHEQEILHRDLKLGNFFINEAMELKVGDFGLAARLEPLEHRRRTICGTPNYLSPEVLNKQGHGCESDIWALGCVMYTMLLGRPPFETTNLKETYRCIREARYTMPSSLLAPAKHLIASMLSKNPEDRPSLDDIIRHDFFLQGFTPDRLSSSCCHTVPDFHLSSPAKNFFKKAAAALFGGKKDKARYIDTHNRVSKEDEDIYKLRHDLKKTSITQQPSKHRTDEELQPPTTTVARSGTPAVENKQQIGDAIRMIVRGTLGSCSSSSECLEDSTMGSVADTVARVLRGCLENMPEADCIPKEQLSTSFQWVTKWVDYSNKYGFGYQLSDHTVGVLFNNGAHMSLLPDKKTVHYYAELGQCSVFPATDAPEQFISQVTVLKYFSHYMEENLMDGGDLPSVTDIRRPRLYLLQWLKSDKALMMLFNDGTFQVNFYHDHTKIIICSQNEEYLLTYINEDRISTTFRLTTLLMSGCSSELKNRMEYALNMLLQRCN
T2 sequence (Q9H4B4 whole entry): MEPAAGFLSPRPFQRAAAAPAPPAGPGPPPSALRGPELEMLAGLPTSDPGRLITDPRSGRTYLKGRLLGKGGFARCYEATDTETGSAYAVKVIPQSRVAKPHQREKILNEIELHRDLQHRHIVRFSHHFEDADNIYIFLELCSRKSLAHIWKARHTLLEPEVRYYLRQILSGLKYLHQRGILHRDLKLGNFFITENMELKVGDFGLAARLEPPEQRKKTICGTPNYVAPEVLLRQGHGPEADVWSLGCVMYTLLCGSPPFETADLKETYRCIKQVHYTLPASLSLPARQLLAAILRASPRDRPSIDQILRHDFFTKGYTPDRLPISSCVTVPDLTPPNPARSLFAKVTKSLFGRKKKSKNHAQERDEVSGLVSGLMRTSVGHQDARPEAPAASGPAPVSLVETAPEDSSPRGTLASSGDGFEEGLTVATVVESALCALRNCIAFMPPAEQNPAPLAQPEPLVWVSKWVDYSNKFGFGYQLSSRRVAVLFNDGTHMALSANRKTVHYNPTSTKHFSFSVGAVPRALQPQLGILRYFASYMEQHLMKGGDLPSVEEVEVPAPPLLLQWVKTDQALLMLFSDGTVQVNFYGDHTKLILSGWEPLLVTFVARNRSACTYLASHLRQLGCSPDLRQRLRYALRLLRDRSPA

`CC[C@@H]1C(=O)N(C)c2cnc(Nc3ccc(C(=O)NC4CCN(C)CC4)cc3OC)nc2N1C1CCCC1` [BI 2561]: the “total α-synuclein levels in brain, western blot” value in assay [1] was “no effect”. Besides, the “brain p-synuclein levels (p-Ser129), western blot” value in assay [1] (from 1 hour to 6 hours after treatment) is listed as “clear decrease”.
As a reminder, the EC50 is the concentration at which the effect is half-maximal. The IC50 is the point on the concentration scale where inhibition reaches its midpoint. As for Scytonemin, the concentration for a half-maximal effect (EC50) in [2] (setting [10]) was > 100 µM; in [2] (setting [11]) it was > 100 µM; in assay [3], > 100 µM; in [4], > 100 µM; in assay [7] (293 cells, Table 18, read-out: EC50, Endogenous Kinase (293)), > 100 µM; on PLK2 [8] (setting [13]) it was > 100 µM. For the same compound, the “inhibition of 50% of synuclein phosphorylation in cells” value in assay [5] (cell types tested) is listed as “did not inhibit 50%”. The “inhibition of 50% of synuclein phosphorylation in the in vitro assay” value against PLK2 [6] (PLK2-driven phosphorylation in vitro) is reported as “did not inhibit 50%”. Moreover, on PLK2 [6] (setting [12]), the IC50 is > 100 µM.
Turning to `Brc1c(Br)c(Br)c2[nH]nnc2c1Br` [TBB], in [2] (MCC, even at concentrations of 100 μM), the “effect on synuclein phosphorylation” value is “no effect”.
As for Over-Expressed PLK1, in [9] (48 hours post-transfection, with WT-synuclein), the “Proportion of total synuclein that is phoshorylated at ser-129” value is recorded as 4.1%. The “Fold Change in Percent Synuclein Phosphorylation” value in assay [9] (relative to endogenous kinase (2.0%)) stood at 2.1.
Regarding `COC[C@H]1OC(=O)c2coc3c2[C@@]1(C)C1=C(C3=O)[C@@H]2CCC(=O)[C@@]2(C)C[C@H]1OC(C)=O` [Wortmannin], the concentration giving a half-maximal response (EC50) (in [2] (setting [10]); in [2] (setting [11]); in [3]; in assay [4]; in [7] (setting [14]); on PLK2 [8]) was > 100 µM throughout. For the same compound, the IC50 at PLK2 [6] (setting [12]) was > 100 µM.
In the case of `NC(=O)c1sc2c([N+](=O)[O-])cc(C(F)(F)F)cc2[n+]1[O-]` [ELN-481080], the half-maximal effective concentration (EC50) in assay [3] was ~100 µM; in [4], 25.2 µM; in assay [5] (HEK293, most of the cellular paradigms / cell types tested, read-out: EC50 inhibition of synuclein phosphorylation, cellular paradigms) it was 12 to 38 µM; in assay [7] (Homo sapiens, HEK293, read-out: EC50, Endogenous Kinase (293)) it was ~100 µM; in assay [7] (Homo sapiens, HEK293, read-out: EC50 synuclein phosphorylation, endogenous kinase, previous experiments) it was ~100 µM; in assay [7] (Homo sapiens, HEK293, HEK-293, Example 16, Table 21, read-out: EC50 Based on the Percent Inhibition of Synuclein Phosphorylation, Synuclein + Vector), > 100 µM. In addition, the concentration for a half-maximal effect (EC50) at PLK3 (HEK-293, Example 16, Table 21, read-out: EC50 Based on the Percent Inhibition of Synuclein Phosphorylation, Synuclein + PLK3) is > 100 µM; on PLK2 [8] (setting [13]) it was 38 µM. Besides, the IC50 at PLK2 [6] (setting [15]) was 7.7 µM. Besides, the “rank order of potency, Straight Biochemical” value at PLK2 [6] (rank among 8 inhibitors) came to 3. The “rank order of potency, Endogenous Kinase (293)” value in assay [7] (293 cells) was 4. The “EC50 synuclein phosphorylation, over-expressed PLK3” value on PLK3 (HEK-293) is listed as “not reached”. For the same compound, the “Rank Order of Potency Based on Percent Inhibition of Synuclein Phosphorylation, Synuclein + PLK3” value on PLK3 (HEK-293, Table 22) is reported as 3. In addition, the “inhibition of synuclein phosphorylation, over-expressed PLK3” value on PLK3 (at concentrations of 30-100 μM) was 30-40%. Further, the “EC50 synuclein phosphorylation, over-expressed PLK4” value at PLK4 was “not reached”. On PLK2 [8] (293 cells, Table 19), the “rank order of potency, Over-Expressed PLK2 (293)” value is recorded as 5. Moreover, the “Rank Order of Potency Based on Percent Inhibition of Synuclein Phosphorylation, Synuclein + PLK2” value on PLK2 [8] (HEK-293, Table 22) is 3.
Regarding `COC(=O)[C@@]1(O)C[C@H]2O[C@]1(C)n1c3ccccc3c3c4c(c5c6ccccc6n2c5c31)C(=O)NC4` [Compound K252A], the “rank order of potency, E46K-Syn TG MCC” value in [2] (E46K-Synuclein transgenic mouse cortical cultures) was 2. For the same compound, the half-maximal effective concentration (EC50) was 3.1 µM in assay [2] (setting [10]); 2.9 µM in [2] (Swiss-Webster mouse cortical cultures, read-out: EC50, Swiss-Webster MCC); 3 µM in assay [2] (setting [11]); 3.2 µM in [3]; 3.5 µM in [4]; 3 to 7 µM in assay [5] (HEK293, read-out: EC50 inhibition of synuclein phosphorylation, cellular paradigms). The 50% effective concentration (EC50) was determined as 3.6 µM in assay [7] (setting [14]) and 7.1 µM on PLK2 [8] (setting [13]). Besides, in assay [2] (Swiss-Webster mouse cortical cultures), the “rank order of potency, Swiss-Webster MCC” value was determined as 2. The “rank order of potency, WT-MCC” value in assay [2] (WT mouse cortical cultures) is 2. The “rank order of potency, RVM E46K-Synuclein” value in assay [3] is 3. Moreover, in [4], the “rank order of potency, RVM E46K-Synuclein caPLK2” value stood at 2. Also, the “rank order of potency, Straight Biochemical” value on PLK2 [6] was determined as 4. Besides, the IC50 at PLK2 [6] (setting [15]) and at PLK2 [6] (setting [12]) was > 10 µM throughout. Besides, the “rank order of potency, Endogenous Kinase (293)” value in [7] (293 cells) is reported as 2. On PLK2 [8], the “rank order of potency, Over-Expressed PLK2 (293)” value came to 2.
